Measurements from the supplement of paper PMC6045584.

Legend:
Experiment in all cases: area under dose-response curve of surviving fraction (unscaled, Aref=0) (surviving fraction x log10(nM)); higher = more resistant
Details in all cases: exposure time: 5 days; dose range 0.5-1000 nM
[1] = compound: C[C@H](CN(C)C)Oc1nc(Nc2cc3cccc(Cl)c3cn2)cnc1C#N
Outline: (§1)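 Tumour cell lines in 384-well plates were exposed to eight inhibitor concentrations, from 0.5 to 1000 nM, for five days, and viability was read by CellTiter-Glo luminescence in three screens per line. Signals were normalised to DMSO-only wells, and 3-parameter logistic regression in the drc R package fitted dose-response survival curves to the surviving fractions. Area under the curve is given as the unscaled activity area. That area is taken over log10 dose with Aref = 0.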

NILOTINIB = compound: Cc1cn(-c2cc(NC(=O)c3ccc(C)c(Nc4nccc(-c5cccnc5)n4)c3)cc(C(F)(F)F)c2)cn1 [NILOTINIB]
Outline: as §1

MK-1775 = compound: C=CCn1c(=O)c2cnc(Nc3ccc(N4CCN(C)CC4)cc3)nc2n1-c1cccc(C(C)(C)O)n1 [MK-1775]
Outline: as §1

[2] = compound: CCc1cc(Nc2nccc(-c3c(-c4ccc(OC)c(C(=O)Nc5c(F)cccc5F)c4)nc4ccccn34)n2)c(OC)cc1N1CCC(N2CCN(S(C)(=O)=O)CC2)CC1
Outline: as §1

LENVATINIB = compound: COc1cc2nccc(Oc3ccc(NC(=O)NC4CC4)c(Cl)c3)c2cc1C(N)=O [LENVATINIB]
Outline: as §1

[3] = compound: COc1ccc(-c2cc3c(C)nc(N)nc3n([C@H]3CC[C@H](OCCO)CC3)c2=O)cn1
Outline: as §1

[4] = compound: C[C@@H]1CN(CC(=O)Nc2ccc3c(c2)Cc2cccc(-c4cc(=O)cc(N5CCOCC5)o4)c2S3)C[C@H](C)O1
Outline: as §1

BLEOMYCIN = compound: Cc1c(N)nc([C@H](CC(N)=O)NC[C@H](N)C(N)=O)nc1C(=O)N[C@H](C(=O)N[C@H](C)[C@@H](O)[C@H](C)C(=O)N[C@H](C(=O)NCCc1nc(-c2nc(C(=O)NCCC[S+](C)C)cs2)cs1)[C@@H](C)O)[C@@H](OC1OC(CO)C(O)C(O)C1OC1OC(CO)C(O)C(OC(N)=O)C1O)c1cnc[nH]1 [BLEOMYCIN]
Outline: as §1

BEZ-235 = compound: Cn1c(=O)n(-c2ccc(C(C)(C)C#N)cc2)c2c3cc(-c4cnc5ccccc5c4)ccc3ncc21 [BEZ-235]
Outline: as §1

VORINOSTAT = compound: O=C(CCCCCCC(=O)Nc1ccccc1)NO [VORINOSTAT]
Outline: as §1

| Test System | area under dose-response curve [1] | area under dose-response curve (NILOTINIB) | area under dose-response curve (MK-1775) | area under dose-response curve [2] | area under dose-response curve (LENVATINIB) | area under dose-response curve [3] | area under dose-response curve [4] | area under dose-response curve (BLEOMYCIN) | area under dose-response curve (BEZ-235) | area under dose-response curve (VORINOSTAT) |
| --- | --- | --- | --- | --- | --- | --- | --- | --- | --- | --- |
| CCK81 LARGE INTESTINE | 2.09 | 2.58 | – | – | – | – | – | – | – | – |
| G292 BONE | 3.2 | 3.44 | 2.71 | 3.33 | 2.62 | 1.89 | 3.2 | 2.07 | 2.18 | 3.05 |
| HCC38 BREAST | 2.59 | 2.77 | 2.33 | – | 3.98 | 2.96 | 2.58 | 2.44 | 2.59 | 4 |
| HCC70 BREAST | 3.06 | 3.93 | 2.24 | 3.48 | 3.79 | 2.19 | 3.65 | 2.77 | 2.57 | 3.13 |
| HMLE3 BREAST | – | 3.97 | 2.87 | 3.22 | 3.05 | 2.08 | 3.21 | 3 | 2.13 | – |
| HMT3552 BREAST | 2.82 | 3.47 | – | – | – | – | – | – | – | – |
| HS578T BREAST | 2.54 | 2.81 | 1.96 | 2.93 | – | 1.97 | 2.86 | 2.21 | 2.13 | 2.86 |
